What all share (experiment): CFTR current in FRT cells expressing G551D CFTR, […] compound with VX-770
What all share (assay type): cell-based

Experiment [1] addresses T1, cystic fibrosis transmembrane conductance regulator (CFTR) (Homo sapiens, UniProt P13569, G551D).
Experiment [2] concerns the target T1, cystic fibrosis transmembrane conductance regulator (CFTR). This is another data set of the same source.
Experiment [3] has the same target. This is another data set of the same source.

T1 sequence (P13569 whole entry G551D): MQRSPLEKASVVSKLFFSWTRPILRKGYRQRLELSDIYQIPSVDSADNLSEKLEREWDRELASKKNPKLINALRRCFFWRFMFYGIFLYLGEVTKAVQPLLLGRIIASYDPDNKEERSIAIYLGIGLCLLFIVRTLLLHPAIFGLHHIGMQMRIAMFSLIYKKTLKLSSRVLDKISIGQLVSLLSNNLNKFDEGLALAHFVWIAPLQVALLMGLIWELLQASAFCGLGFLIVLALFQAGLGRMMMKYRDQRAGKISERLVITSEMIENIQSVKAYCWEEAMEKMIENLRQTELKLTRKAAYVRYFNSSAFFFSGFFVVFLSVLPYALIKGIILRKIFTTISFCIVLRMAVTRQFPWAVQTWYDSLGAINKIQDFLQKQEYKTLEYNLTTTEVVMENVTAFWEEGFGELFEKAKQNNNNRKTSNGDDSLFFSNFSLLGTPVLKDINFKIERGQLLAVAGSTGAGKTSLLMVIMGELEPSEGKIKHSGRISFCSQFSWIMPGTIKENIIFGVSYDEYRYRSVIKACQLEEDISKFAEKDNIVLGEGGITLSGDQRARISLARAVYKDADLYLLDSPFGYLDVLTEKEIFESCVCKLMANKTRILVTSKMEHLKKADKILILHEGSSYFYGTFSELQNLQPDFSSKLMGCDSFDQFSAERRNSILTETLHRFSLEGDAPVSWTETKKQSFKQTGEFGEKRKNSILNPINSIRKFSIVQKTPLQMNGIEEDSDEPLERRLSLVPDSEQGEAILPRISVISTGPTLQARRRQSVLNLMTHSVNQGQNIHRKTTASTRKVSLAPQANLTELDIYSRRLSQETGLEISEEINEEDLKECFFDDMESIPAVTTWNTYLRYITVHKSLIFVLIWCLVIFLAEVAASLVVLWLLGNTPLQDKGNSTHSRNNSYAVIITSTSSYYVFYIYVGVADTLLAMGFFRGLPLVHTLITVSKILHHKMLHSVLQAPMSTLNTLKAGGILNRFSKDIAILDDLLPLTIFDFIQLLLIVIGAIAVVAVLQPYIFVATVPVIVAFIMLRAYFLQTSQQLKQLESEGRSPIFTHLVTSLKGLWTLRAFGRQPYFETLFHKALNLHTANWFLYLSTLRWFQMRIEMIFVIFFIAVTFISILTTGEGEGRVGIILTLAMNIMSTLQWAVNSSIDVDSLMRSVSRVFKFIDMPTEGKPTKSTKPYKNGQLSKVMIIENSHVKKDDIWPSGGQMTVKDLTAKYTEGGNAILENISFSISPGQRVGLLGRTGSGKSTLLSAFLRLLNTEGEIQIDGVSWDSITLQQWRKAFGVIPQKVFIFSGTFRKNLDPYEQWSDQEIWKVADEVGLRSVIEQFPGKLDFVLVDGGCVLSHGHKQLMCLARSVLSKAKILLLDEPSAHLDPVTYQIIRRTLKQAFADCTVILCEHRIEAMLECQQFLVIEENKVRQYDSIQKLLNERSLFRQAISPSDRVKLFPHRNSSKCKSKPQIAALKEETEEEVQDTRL

In the case of `CC(C)(C)C1=Nn2c(nnc2-c2ccc(Cl)cc2Cl)SC1` [8d], in experiment [1], the “% gain above VX-770 alone” value is listed as ~ 400 % gain above VX-770 alone.

For `CC(C)C1=Nn2c(nnc2-c2cc(Cl)ccc2Br)SC1` [9c], the “CFTR current in FRT cells expressing G551D CFTR, 10 μM compound with VX-770” value in experiment [2] is 2-bromo-5-chloro series with 9c and 9d showing the highest levels of activity.

`COc1ccc(Br)c(-c2nnc3n2N=C(C(C)C)CS3)c1` [10a]: the “% G551D CFTR stimulation compared to VX-770 alone” value in experiment [3] is recorded as 232 % G551D CFTR stimulation compared to VX-770 alone.

(Values after publication PMC10577695, “A Novel 7H-[1,2,4]Triazolo[3,4-b]thiadiazine-based Cystic Fibrosis Transmembrane Conductance Regulator Potentiator Directed toward Treatment of Cystic Fibrosis” (ACS Medicinal Chemistry Letters, 2023).)
